# Test results: patent US20250299796A1, “COMPOSITIONS AND METHODS FOR TREATING AND/OR CHARACTERIZING HEMATOLOGICAL MALIGNANCIES AND PRECURSOR CONDITIONS” (Dana-Farber Cancer Institute, Inc., priority 2021, published 2025)
# Legend:
# [1] = test system: patients with high-risk smoldering multiple myeloma (SMM); experiment: Phase II trial (E-PRISM): safety and tolerability, adverse events graded by CTCAE v4.0; details: in vivo
# Method: In the treatment schema a cycle is defined as 28 consecutive days. In cycles 1 and 2, 10 mg/kg of intravenous push Elotuzumab were administered on days 1, 8, 15, and 22. In cycles 3-4, it was administered on days 1 and 15. A 25 mg dose of oral Lenalidomide was administered on days 1-21 of each cycle. In Arm A, 40 mg of oral Dexamethasone were administered on days 1, 8, 15, and 22 in cycles 1 and 2 and on days 1, 8, and 15 in cycles 3-8. Patients on maintenance treatment (cycles 9-24) were administered 20 mg/kg of intravenous push Elotuzumab on day 1 and 15 mg oral Lenalidomide on days 1-21. All patients received thromboprophylaxis.
# Toxicities were monitored throughout the study and for up to 30 days after the last dose of the study drug. Adverse events (AEs) were graded according to the National Cancer Institute Common Terminology Criteria for Adverse Events (CTCAE; version 4.0; Bethesda, MD). In addition, neuropathy symptoms were assessed using the FACT/GOG-Neuropathy questionnaire (Version 4.0). Efficacy was measured using the IWMG criteria for response^31.
# Forty-nine patients experienced at least one toxicity while on study with worst grades of 1-mild (n=0), 2-moderate (n=11/51, 22%), and 3-severe (n=29/51, 57%), 4-life threatening (n=7/51, 14%), and 5-fatal (n=2/51, 4%). […]
# [2] = test system: immune system in patients with SMM; details: trial of Lenalidomide and Dexamethasone; cited from earlier work
smiles,measurement,setting,value
C[C@@H]1C[C@H]2[C@@H]3CCC4=CC(=O)C=C[C@]4(C)[C@@]3(F)[C@@H](O)C[C@]2(C)[C@@]1(O)C(=O)CO [Dexamethasone],Effect of Dexamethasone dose on type or frequency of treatment-related toxicities,[1],no effect
same,Effect of once weekly high-dose Dexamethasone on the immune system,[2],does not have a detrimental effect
